Data published in patent US9102591B2, “Benzamides” (H. Lundbeck A/S, priority 2012, dated 2015).

These compounds were tested against P2X7 receptor (Homo sapiens (Human), UniProt Q99572) (assay: P2X7 FLIPR assay (BzATP-stimulated calcium fluorescence, antagonist IC50)). Settings: not given.
Format: cell-based
In short: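 Cells expressing P2X7 receptor (human, rat or mouse), plated 24 hours earlier in low-serum medium, loaded with Fluo-4 NW dye (30 min 37° C, 30 min room temperature).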

Sequence of P2X7 receptor (Q99572 whole entry): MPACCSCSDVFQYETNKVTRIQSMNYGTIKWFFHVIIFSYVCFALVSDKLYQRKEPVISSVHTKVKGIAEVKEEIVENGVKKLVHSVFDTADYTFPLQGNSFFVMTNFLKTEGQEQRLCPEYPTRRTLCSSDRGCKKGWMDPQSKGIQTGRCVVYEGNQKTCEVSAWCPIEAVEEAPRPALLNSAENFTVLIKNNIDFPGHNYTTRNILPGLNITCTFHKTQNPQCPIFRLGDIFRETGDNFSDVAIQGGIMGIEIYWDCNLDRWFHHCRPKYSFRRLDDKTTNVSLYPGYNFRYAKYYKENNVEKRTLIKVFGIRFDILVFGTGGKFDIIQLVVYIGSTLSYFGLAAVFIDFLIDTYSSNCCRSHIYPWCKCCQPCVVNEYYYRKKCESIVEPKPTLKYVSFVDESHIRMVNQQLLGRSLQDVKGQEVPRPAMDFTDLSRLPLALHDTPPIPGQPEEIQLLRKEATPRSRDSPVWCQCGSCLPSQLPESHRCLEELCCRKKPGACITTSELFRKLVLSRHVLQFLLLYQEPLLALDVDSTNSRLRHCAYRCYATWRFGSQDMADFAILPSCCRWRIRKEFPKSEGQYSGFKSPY

| IC50 [µM] | Compound |
| --- | --- |
| 0.0042 | COc1cccc(C(=O)NCC(CC2CC2)c2ccc(C(F)(F)F)nc2)c1Cl (single isomer, unassigned; (-)) [(−)2-chloro-N-[3-cyclopropyl-2-[6-(trifluoromethyl)-3-pyridy] [(−)2-chloro-N-[3-cyclopropyl-2-[6-(trifluoromethyl)-3-pyridyl]propyl]-3-methoxy-benzamide] |
| 0.0081 | CS(=O)(=O)c1ccc(Cl)c(C(=O)NCC(CC2CC2)c2ccc(C(F)(F)F)nc2)c1 (single isomer, unassigned; (-)) [(−)2-chloro-N-[3-cyclopropyl-2-[6-(trifluoromethyl)-3-pyridy] [(−)2-chloro-N-[3-cyclopropyl-2-[6-(trifluoromethyl)-3-pyridyl]propyl]-5-methylsulfonyl-benzamide] |
| 0.0021 | O=C(NCC(CC1CC1)c1ccc(C(F)(F)F)nc1)c1c(F)cccc1Cl (single isomer, unassigned; (-)) [(−)2-chloro-N-[3-cyclopropyl-2-[6-(trifluoromethyl)-3-pyridy] [(−)2-chloro-N-[3-cyclopropyl-2-[6-(trifluoromethyl)-3-pyridyl]propyl]-6-fluoro-benzamide] |
| 0.034 | CC(CNC(=O)c1cccc(F)c1Cl)(CC1CC1)c1cnc(C(F)(F)F)nc1 (single isomer, unassigned; (-)) [(−)2-chloro-N-[3-cyclopropyl-2-methyl-2-[2-(trifluoromethyl)] [(−)2-chloro-N-[3-cyclopropyl-2-methyl-2-[2-(trifluoromethyl)pyrimidin-5-yl]propyl]-3-fluoro-benzamide] |
| 0.017 | CC(CNC(=O)c1ccccc1Cl)(CC1CC1)c1cnc(C(F)(F)F)nc1 (single isomer, unassigned; (-)) [(−)2-chloro-N-[3-cyclopropyl-2-methyl-2-[2-(trifluoromethyl)] [(−)2-chloro-N-[3-cyclopropyl-2-methyl-2-[2-(trifluoromethyl)pyrimidin-5-yl]propyl]benzamide] |
| 0.0014 | COc1cccc(C(=O)NCC(CC2CC2)c2cnc(C(F)(F)F)nc2)c1C (single isomer, unassigned; (-)) [(−)N-[3-cyclopropyl-2-[2-(trifluoromethyl)pyrimidin-5-yl]pro] [(−)N-[3-cyclopropyl-2-[2-(trifluoromethyl)pyrimidin-5-yl]propyl]-3-methoxy-2-methyl-benzamide] |
| 0.13 | O=C(NCC(CC1CC1)c1ccc(C(F)(F)F)nc1)c1c(F)cccc1F (single isomer, unassigned; (-)) [(−)N-[3-cyclopropyl-2-[6-(trifluoromethyl)-3-pyridyl]propyl]] |
| 0.0023 | O=C(NCC(CC1CC1)c1ccc(C(F)(F)F)nc1)c1ccccc1Cl (single isomer, unassigned; (-)) [Example 4b, (−)-2-Chloro-N-[3-cyclopropyl-2-[6-(trifluoromethyl)-3-pyridyl]propyl]benzamide] |
| 0.0029 | O=C(NCC(CC1CC1)c1ccc(C(F)(F)F)nc1)c1cccc(F)c1Cl (stereo not drawn) [2(−)-chloro-N-[3-cyclopropyl-2-[6-(trifluoromethyl)-3-pyridy] [2(−)-chloro-N-[3-cyclopropyl-2-[6-(trifluoromethyl)-3-pyridyl]propyl]-3-fluoro-benzamide] |
| 2.2 | O=C(NCC1(c2cccnc2)CCCC1)c1cccc(Cl)c1Cl [2,3-Dichloro-N-(1-pyridin-3-yl-cyclopentylmethyl)-benzamide] |
| 0.26 | COc1ccc(C2(CNC(=O)c3cccc(Cl)c3Cl)CCCC2)cc1 [2,3-Dichloro-N-[1-(4-methoxy-phenyl)-cyclopentylmethyl]-benzamide] |
| 0.001 | Cc1ccc(C(CNC(=O)c2cccc(Cl)c2Cl)CC(C)C)cn1 (stereo not shown) [2,3-Dichloro-N-[4-methyl-2-(6-methyl-pyridin-3-yl)-pentyl]-benzamide] |
| 0.0044 | Cc1ccc(C(CNC(=O)c2cccc(C)c2C)CC(C)C)cn1 (stereo not shown) [2,3-Dimethyl-N-[4-methyl-2-(6-methyl-pyridin-3-yl)-pentyl]-benzamide] |
| 0.12 | O=C(NCC(c1ccccc1)c1ccc(Cl)cc1)c1cccc(Cl)c1Cl (stereo not shown) [2,3-dichloro-N-(2-(4-chlorophenyl)-2-phenylethyl)benzamide] |
| 0.0055 | O=C(NCC(CC1CC1)c1cncc(Cl)c1)c1cccc(Cl)c1Cl (stereo not shown) [2,3-dichloro-N-(2-(5-chloropyridin-3-yl)-3-cyclopropylpropyl)benzamide] |
| 0.12 | O=C(NCC(c1ccc(C(F)(F)F)nc1)C1CC1)c1cccc(Cl)c1Cl (stereo not shown) [2,3-dichloro-N-(2-cyclopropyl-2-(6-(trifluoromethyl)pyridin-3-yl)ethyl)benzamide] |
| 0.094 | O=C(NCC(c1ccccc1)c1ccnnc1)c1cccc(Cl)c1Cl (stereo not shown) [2,3-dichloro-N-(2-phenyl-2-pyridazin-4-yl-ethyl)benzamide] |
| 0.0013 | O=C(NCC1(c2ccc(C3CC3)nc2)CCC(F)(F)CC1)c1cccc(Cl)c1Cl [2,3-dichloro-N-((1-(6-cyclopropylpyridin-3-yl)-4,4-difluorocyclohexyl)methyl)benzamide] |
| 0.015 | Cc1ncc(C2(CNC(=O)c3cccc(Cl)c3Cl)CCOC2)cn1 (stereo not shown) [2,3-dichloro-N-((3-(2-methylpyrimidin-5-yl)tetrahydrofuran-3-yl)methyl)benzamide] |
| 0.09 | Cc1cn(C2(CNC(=O)c3cccc(Cl)c3Cl)CCC(F)(F)CC2)cn1 [2,3-dichloro-N-((4,4-difluoro-1-(4-methyl-1H-imidazol-1-yl)cyclohexyl)methyl)benzamide] |
| 0.0012 | O=C(NCC1(c2cncc(F)c2)CCC(F)(F)CC1)c1cccc(Cl)c1Cl [2,3-dichloro-N-((4,4-difluoro-1-(5-fluoropyridin-3-yl)cyclohexyl)methyl)benzamide] |
| 0.0012 | O=C(NCC1(c2ccc(C(F)(F)F)nc2)CCC(F)(F)CC1)c1cccc(Cl)c1Cl [2,3-dichloro-N-((4,4-difluoro-1-(6-(trifluoromethyl)pyridin-3-yl)cyclohexyl)methyl)benzamide] |
| 0.00096 | COc1ccc(C2(CNC(=O)c3cccc(Cl)c3Cl)CCC(F)(F)CC2)cn1 [2,3-dichloro-N-((4,4-difluoro-1-(6-methoxypyridin-3-yl)cyclohexyl)methyl)benzamide] |
| 0.043 | O=C(NCC1(c2ccc(Cl)cc2)CCOCC1)c1cccc(Cl)c1Cl [2,3-dichloro-N-((4-(4-chlorophenyl)tetrahydro-2H-pyran-4-yl)methyl)benzamide] |
| 0.052 | O=C(NCC1(c2ccc(C(F)(F)F)nc2)CCOCC1)c1cccc(Cl)c1Cl [2,3-dichloro-N-((4-(6-(trifluoromethyl)pyridin-3-yl)tetrahydro-2H-pyran-4-yl)methyl)benzamide] |
| 0.96 | Cc1ncc(C2(C(C)NC(=O)c3cccc(Cl)c3Cl)CCC(F)(F)CC2)cn1 (stereo not shown) [2,3-dichloro-N-[1-[4,4-difluoro-1-(2-methylpyrimidin-5-yl)cyclohexyl]ethyl]benzamide] |
| 0.0071 | Cc1ncc(C(CNC(=O)c2cccc(Cl)c2Cl)CC2(C(F)(F)F)CC2)cn1 (stereo not shown) [2,3-dichloro-N-[2-(2-methylpyrimidin-5-yl)-3-[1-(trifluorome] [2,3-dichloro-N-[2-(2-methylpyrimidin-5-yl)-3-[1-(trifluoromethyl)cyclopropyl]propyl]benzamide] |

Same assay, conditions: listed as (−)2-chloro-N-[3-cyclopropyl-2-(6-fluoro-3-pyridyl)propyl]benzamide

| IC50 [µM] | Compound |
| --- | --- |
| 0.016 | O=C(NCC(CC1CC1)c1ccc(F)nc1)c1ccccc1Cl (single isomer, unassigned; (-)) [Example 4x, (−)-2-chloro-N-(3-cyclopropyl-2-(6-fluoropyridin-3-yl)propyl)benzamide] |
